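1) Cells in 96-well plates. 2) Compound, 48 h, 5 concentrations. 3) Linear interpolation between surrounding doses. 4) Unreached endpoint = highest concentration. TGI marks complete inhibition of growth.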
What was measured:
Assay in all cases: NCI tumour cell line growth inhibition, 48 h
[1] = tested on: RXF 393 renal
[2] = tested on: DMS 114 small cell lung
[3] = tested on: SR leukemia
[4] = tested on: LXFL 529 NSCLC
[5] = tested on: IGROV1 ovarian
[6] = tested on: SNB-78 CNS
[7] = tested on: NCI-H226 lung
[8] = tested on: ACHN renal
[9] = tested on: SK-OV-3 ovarian
[10] = tested on: M14 melanoma
[11] = tested on: 786-0 renal
[12] = tested on: U251 CNS
[13] = tested on: HL-60(TB) leukemia
[14] = tested on: OVCAR-3 ovarian
[15] = tested on: MOLT-4 leukemia
[16] = tested on: UACC-257 melanoma
[17] = tested on: HCC-2998 colon
[18] = tested on: MALME-3M melanoma
[19] = tested on: KM12 colon
[20] = tested on: COLO 205 colon
[21] = tested on: OVCAR-4 ovarian
[22] = tested on: SK-MEL-2 melanoma
[23] = tested on: M19-MEL melanoma
[24] = tested on: DMS 273 small cell lung
[25] = tested on: HOP-92 NSCLC
[26] = tested on: HCT-116 colon
[27] = tested on: UO-31 renal
[28] = tested on: TK-10 renal
[29] = tested on: SF-539 CNS
[30] = tested on: SNB-75 CNS
[31] = tested on: SF-295 CNS
[32] = tested on: SW-620 colon
[33] = tested on: XF 498 CNS
[34] = tested on: HOP-62 NSCLC
[35] = tested on: CAKI-1 renal
[36] = tested on: HCT-15 colon
[37] = tested on: RPMI-8226 leukemia
[38] = tested on: SK-MEL-28 melanoma
[39] = tested on: SF-268 CNS
[40] = tested on: NCI-H522 lung
[41] = tested on: EKVX NSCLC
[42] = tested on: OVCAR-5 ovarian
[43] = tested on: A549 NSCLC
[44] = tested on: LOX IMVI melanoma
[45] = tested on: CCRF-CEM leukemia
[46] = tested on: NCI-H460 lung
[47] = tested on: SK-MEL-5 melanoma
[48] = tested on: K-562 leukemia
[49] = tested on: DLD-1 colon
[50] = tested on: KM20L2 colon
[51] = tested on: RXF-631 renal
[52] = tested on: OVCAR-8 ovarian
[53] = tested on: A498 renal
[54] = tested on: SNB-19 CNS
[55] = tested on: NCI-H23 lung
[56] = tested on: SN12C renal
[57] = tested on: P388 leukemia
[58] = tested on: P388/ADR leukemia
[59] = tested on: MCF7 breast
[60] = tested on: UACC-62 melanoma
[61] = tested on: NCI/ADR-RES ovarian
[62] = tested on: HOP-18 NSCLC
[63] = tested on: SN12K1 renal
[64] = tested on: HT29 colon

With `CC(=O)C1Cn2c(=O)c3cc4ccccc4cc3c(=O)n2C=C1C` (configuration not stated) the TGI [1] was > 100 µM, the TGI [2] was > 100 µM and the TGI [3] was > 100 µM. For the same molecule, the TGI [4] was > 100 µM, the TGI [5] was > 100 µM and the TGI [6] was > 100 µM. The TGI [7] was > 100 µM, the TGI [8] was > 100 µM and the TGI [9] was > 100 µM. For the same molecule, the TGI [10] was > 100 µM, the TGI [11] was > 100 µM and the TGI [12] was > 100 µM. The TGI [13] was > 100 µM, the TGI [14] was > 100 µM and the TGI [15] was > 100 µM. For the same molecule, the TGI [16] was > 100 µM, the TGI [17] was > 100 µM and the TGI [18] was > 100 µM. The TGI [19] was > 100 µM, the TGI [20] was > 100 µM and the TGI [21] was > 100 µM. The TGI [22] was > 100 µM, the TGI [23] was > 100 µM and the TGI [24] was > 100 µM. The TGI [25] was > 100 µM, the TGI [26] was > 100 µM and the TGI [27] was > 100 µM. For the same molecule, the TGI [28] was > 100 µM, the TGI [29] was > 100 µM and the TGI [30] was > 100 µM. The TGI [31] was > 100 µM, the TGI [32] was > 100 µM and the TGI [33] was > 100 µM. For the same molecule, the TGI [34] was > 100 µM, the TGI [35] was > 100 µM and the TGI [36] was > 100 µM. The TGI [37] was > 100 µM, the TGI [38] was > 100 µM and the TGI [39] was > 100 µM. The TGI [40] was > 100 µM, the TGI [41] was > 100 µM and the TGI [42] was > 100 µM. For the same molecule, the TGI [43] was > 100 µM, the TGI [44] was > 100 µM and the TGI [45] was > 100 µM. For the same molecule, the TGI [46] was > 100 µM, the TGI [47] was > 100 µM and the TGI [48] was > 100 µM. The TGI [49] was > 100 µM, the TGI [50] was > 100 µM and the TGI [51] was > 100 µM. For the same molecule, the TGI [52] was > 100 µM, the TGI [53] was > 100 µM and the TGI [54] was > 100 µM. The TGI [55] was > 100 µM and the TGI [56] was > 100 µM.
With `Cc1[nH]c(=O)[nH]c(=O)c1/C=C/C(=O)NC(CO)CS(=O)Cc1ccccc1` (configuration not stated) the TGI [1] was > 300 µM, the TGI [2] was > 300 µM and the TGI [5] was > 300 µM. For the same molecule, the TGI [6] was > 300 µM, the TGI [7] was > 300 µM and the TGI [9] was > 300 µM. The TGI [12] was > 300 µM, the TGI [13] was > 300 µM and the TGI [14] was > 300 µM. For the same molecule, the TGI [15] was > 300 µM, the TGI [16] was > 300 µM and the TGI [17] was > 300 µM. For the same molecule, the TGI [18] was > 300 µM, the TGI [19] was > 300 µM and the TGI [20] was > 300 µM. The TGI [57] was > 300 µM, the TGI [22] was > 300 µM and the TGI [23] was > 300 µM. The TGI [24] was > 300 µM, the TGI [25] was > 300 µM and the TGI [26] was > 300 µM. For the same molecule, the TGI [27] was > 300 µM, the TGI [29] was > 300 µM and the TGI [30] was > 300 µM. The TGI [58] was > 300 µM, the TGI [31] was > 300 µM and the TGI [32] was > 300 µM. The TGI [33] was > 300 µM, the TGI [34] was > 300 µM and the TGI [35] was > 300 µM. The TGI [36] was > 300 µM, the TGI [37] was > 300 µM and the TGI [38] was > 300 µM. For the same molecule, the TGI [59] was > 300 µM, the TGI [60] was > 300 µM and the TGI [61] was > 300 µM. The TGI [39] was > 300 µM, the TGI [40] was > 300 µM and the TGI [41] was > 300 µM. For the same molecule, the TGI [42] was > 300 µM, the TGI [43] was > 300 µM and the TGI [62] was > 300 µM. For the same molecule, the TGI [44] was > 300 µM, the TGI [45] was > 300 µM and the TGI [46] was > 300 µM. For the same molecule, the TGI [47] was > 300 µM, the TGI [48] was > 300 µM and the TGI [63] was > 300 µM. For the same molecule, the TGI [49] was > 300 µM, the TGI [50] was > 300 µM and the TGI [52] was > 300 µM. The TGI [53] was > 300 µM, the TGI [54] was > 300 µM and the TGI [55] was > 300 µM. The TGI [56] was > 300 µM and the TGI [64] was > 300 µM.

— PubChem BioAssay (NCI)
